In ChEMBL document CHEMBL1201862, “PubChem BioAssay data set” (2004):
Structures can show the parent of a compound that is named as a salt. Activity calls are given as the source filed them.

Key:
[1] = viability loss in HepG2 hepatoma cells – cell-based, ATP luminescence, cherry-pick, activator set 2, cytotoxicity control, dose response (AID 1053143); format: functional
[2] = A549 cell cytotoxicity, dose response, cytotoxicity control, plate reader, cherry-pick, antagonist series (AID 743412); format: functional, cell-based
[3] = target: T1, Ubiquitin-conjugating enzyme E2 N (Homo sapiens, UniProt P61088); format: functional;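 also: Dose-response confirmation in a TR-FRET assay detecting UBC13-driven polyubiquitin chain formation, inhibition measured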
T1 sequence (P61088 whole entry): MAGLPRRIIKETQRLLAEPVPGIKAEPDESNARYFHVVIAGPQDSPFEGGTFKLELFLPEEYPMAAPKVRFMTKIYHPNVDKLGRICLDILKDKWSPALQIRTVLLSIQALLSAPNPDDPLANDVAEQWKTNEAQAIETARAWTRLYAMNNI

[4] = toxicity toward HepG2 liver cells – cell-based, plate reader, cherry-pick, antagonist series, cytotoxicity control, dose response (AID 743416); format: functional
[5] = viability loss in HEK293 cells – cell-based, plate reader, cherry-picked samples, cytotoxicity control, dose response (AID 743446); format: functional
[6] = reduced cellular PGC1a acetyl-lysine signal – cell-based, cherry-picked samples, dose response (AID 720514); format: functional;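 also: potency may reflect raised or lowered acetylation signal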
[7] = blockade of melanocortin 4 receptor signaling – cell-based, plate reader, cherry pick, counter-screen for LGR2 antagonist project, dose response (AID 743444); format: functional
[8] = blockers of bursicon-stimulated LGR2 cAMP reporter – cell-based, HEK293, CRE-luciferase reporter, cherry pick, set 2, dose response (AID 743343); format: functional;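 also: transfected cells were stimulated with diluted bursicon conditioned medium after compound addition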
[9] = target: T2, DNA repair and recombination protein RAD54-like (Homo sapiens, UniProt Q92698); experiment: RAD54 Holliday junction migration blockers – biochemical, fluorescence, cherry-picked samples, dose series, confirmation (AID 651657); format: functional
T2 sequence (Q92698 whole entry): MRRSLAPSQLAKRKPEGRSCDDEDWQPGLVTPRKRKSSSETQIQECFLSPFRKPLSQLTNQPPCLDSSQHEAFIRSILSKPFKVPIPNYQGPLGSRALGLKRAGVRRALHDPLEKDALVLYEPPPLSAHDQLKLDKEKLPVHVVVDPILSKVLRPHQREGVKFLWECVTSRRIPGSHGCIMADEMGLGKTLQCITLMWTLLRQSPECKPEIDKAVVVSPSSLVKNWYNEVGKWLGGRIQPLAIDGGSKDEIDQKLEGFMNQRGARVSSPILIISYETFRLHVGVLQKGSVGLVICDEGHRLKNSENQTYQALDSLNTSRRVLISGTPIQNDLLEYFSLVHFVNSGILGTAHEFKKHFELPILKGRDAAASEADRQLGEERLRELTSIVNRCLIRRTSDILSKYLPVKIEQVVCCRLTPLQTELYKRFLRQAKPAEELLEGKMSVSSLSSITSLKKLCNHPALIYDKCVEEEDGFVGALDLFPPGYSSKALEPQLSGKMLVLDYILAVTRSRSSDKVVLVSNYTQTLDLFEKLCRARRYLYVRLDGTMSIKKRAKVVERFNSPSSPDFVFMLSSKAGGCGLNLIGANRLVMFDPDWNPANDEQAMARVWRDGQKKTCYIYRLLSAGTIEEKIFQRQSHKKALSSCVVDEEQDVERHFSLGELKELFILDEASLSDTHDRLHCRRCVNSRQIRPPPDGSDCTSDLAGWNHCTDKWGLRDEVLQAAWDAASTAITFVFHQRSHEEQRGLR

[10] = target: T3, DNA repair protein RAD52 homolog (Homo sapiens, UniProt P43351); format: functional, biochemical
T3 sequence (P43351 whole entry): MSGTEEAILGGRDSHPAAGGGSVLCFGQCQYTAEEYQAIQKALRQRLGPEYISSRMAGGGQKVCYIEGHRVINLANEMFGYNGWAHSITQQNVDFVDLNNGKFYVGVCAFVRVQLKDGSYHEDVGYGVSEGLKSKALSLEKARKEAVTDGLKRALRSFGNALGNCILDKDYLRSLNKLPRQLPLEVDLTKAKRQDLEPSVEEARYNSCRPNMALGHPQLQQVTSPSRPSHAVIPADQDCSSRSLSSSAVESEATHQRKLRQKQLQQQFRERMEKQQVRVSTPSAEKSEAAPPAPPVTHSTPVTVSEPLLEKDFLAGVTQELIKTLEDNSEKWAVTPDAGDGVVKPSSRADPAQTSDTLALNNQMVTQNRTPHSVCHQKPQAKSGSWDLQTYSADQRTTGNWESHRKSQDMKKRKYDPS

[11] = target: T4, Small ubiquitin-related modifier 1 (Homo sapiens, UniProt P63165); experiment: SUMO1 protein interaction blockers, potency – biochemical, fluorescence polarization, uHTS hits, dose response (AID 624382); format: functional; conditions: read-out: IC50_Mean
[12] = target: T4, Small ubiquitin-related modifier 1; experiment: SUMO1 protein-protein binding blockers, potency – biochemical, FRET, dose response (AID 624383); format: functional; conditions: read-out: IC50_Mean
[13] = Luminescence Cell-Based Dose Retest to Confirm Inhibitors of Cancer Stem Cells. [Related pubchem assays (depositor defined):AID2717, AID2721]; format: functional; conditions: Homo sapiens
[14] = target: Disintegrin and metalloproteinase domain-containing protein 17 (Homo sapiens, UniProt P78536); experiment: exosite inhibitors of ADAM17, dose response, biochemical (AID 743260)
[15] = inhibition of ADAM10 peptide cleavage – biochemical, FRET peptide substrate, recombinant human ADAM10, selectivity assay for ADAM17 exosite inhibitor project, dose response (AID 743259);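 also: ADAM10 enzyme cleaving a FRET peptide substrate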
[16] = target: T5, Histone-lysine N-methyltransferase NSD2 (Homo sapiens, UniProt O96028); format: biochemical
T5 sequence (O96028 whole entry): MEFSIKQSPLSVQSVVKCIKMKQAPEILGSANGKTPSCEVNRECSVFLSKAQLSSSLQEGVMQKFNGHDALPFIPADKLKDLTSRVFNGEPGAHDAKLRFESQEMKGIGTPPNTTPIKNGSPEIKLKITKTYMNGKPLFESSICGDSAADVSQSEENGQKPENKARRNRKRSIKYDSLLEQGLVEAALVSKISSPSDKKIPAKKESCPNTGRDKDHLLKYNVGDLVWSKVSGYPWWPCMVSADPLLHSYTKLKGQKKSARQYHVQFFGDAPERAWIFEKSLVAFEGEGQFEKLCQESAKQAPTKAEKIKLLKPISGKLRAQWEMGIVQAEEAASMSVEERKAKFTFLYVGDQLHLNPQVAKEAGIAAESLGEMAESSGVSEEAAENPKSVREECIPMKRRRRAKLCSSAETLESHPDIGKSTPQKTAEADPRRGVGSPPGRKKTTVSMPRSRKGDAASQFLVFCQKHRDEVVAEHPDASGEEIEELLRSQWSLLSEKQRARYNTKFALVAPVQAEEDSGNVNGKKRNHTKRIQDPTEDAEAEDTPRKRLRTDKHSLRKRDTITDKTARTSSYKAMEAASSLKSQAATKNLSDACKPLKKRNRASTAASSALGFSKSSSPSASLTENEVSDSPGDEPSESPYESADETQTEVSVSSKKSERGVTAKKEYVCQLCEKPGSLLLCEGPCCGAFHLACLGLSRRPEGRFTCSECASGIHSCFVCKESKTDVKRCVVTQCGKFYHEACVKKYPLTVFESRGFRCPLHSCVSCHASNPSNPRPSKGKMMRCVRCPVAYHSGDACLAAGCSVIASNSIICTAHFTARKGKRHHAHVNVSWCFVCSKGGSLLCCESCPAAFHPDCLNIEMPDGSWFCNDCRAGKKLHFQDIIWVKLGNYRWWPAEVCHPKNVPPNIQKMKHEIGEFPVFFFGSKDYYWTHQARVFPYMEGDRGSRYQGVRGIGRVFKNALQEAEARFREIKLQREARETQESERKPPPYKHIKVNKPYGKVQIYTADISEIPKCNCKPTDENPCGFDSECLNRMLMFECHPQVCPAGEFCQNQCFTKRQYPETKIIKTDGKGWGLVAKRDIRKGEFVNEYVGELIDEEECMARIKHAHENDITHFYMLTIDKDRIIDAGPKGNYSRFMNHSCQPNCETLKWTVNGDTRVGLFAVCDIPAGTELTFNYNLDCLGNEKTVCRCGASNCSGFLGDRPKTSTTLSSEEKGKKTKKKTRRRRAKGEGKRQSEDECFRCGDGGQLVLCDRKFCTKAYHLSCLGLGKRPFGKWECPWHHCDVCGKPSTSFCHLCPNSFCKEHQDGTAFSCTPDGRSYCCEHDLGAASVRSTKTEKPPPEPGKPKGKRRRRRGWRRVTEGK

H4 = experiment: Luminescence Cell-Based Dose Response HTS to Identify Activators of 5'UTR Stem-Loop Driven Prion Protein mRNA Translation in H4 Neuroglioblastoma Cells. [Related pubchem assays: 1829 (Project Summary), 1814 (Primary HTS)]; format: functional; conditions: Homo sapiens
[17] = viability loss in HeLa cells – cytotoxicity control for MgcRacGAP inhibitor project, dose response (AID 624300); format: functional
[18] = Luminescence Cell-Based Dose Response HTS to Identify Activators of Luciferase Translation or Activity in H4 […] Cells. [Related pubchem assays: 1829 (Project Summary), 1814 (Primary HTS)]; format: functional
[19] = target: T6, Rac GTPase-activating protein 1 (Homo sapiens, UniProt Q9H0H5); experiment: blockers of MgcRacGAP-driven Rac1 GTP hydrolysis – biochemical, ADP Hunter fluorescence, primary and confirmatory, confirmation (AID 624330); format: functional
T6 sequence (Q9H0H5 whole entry): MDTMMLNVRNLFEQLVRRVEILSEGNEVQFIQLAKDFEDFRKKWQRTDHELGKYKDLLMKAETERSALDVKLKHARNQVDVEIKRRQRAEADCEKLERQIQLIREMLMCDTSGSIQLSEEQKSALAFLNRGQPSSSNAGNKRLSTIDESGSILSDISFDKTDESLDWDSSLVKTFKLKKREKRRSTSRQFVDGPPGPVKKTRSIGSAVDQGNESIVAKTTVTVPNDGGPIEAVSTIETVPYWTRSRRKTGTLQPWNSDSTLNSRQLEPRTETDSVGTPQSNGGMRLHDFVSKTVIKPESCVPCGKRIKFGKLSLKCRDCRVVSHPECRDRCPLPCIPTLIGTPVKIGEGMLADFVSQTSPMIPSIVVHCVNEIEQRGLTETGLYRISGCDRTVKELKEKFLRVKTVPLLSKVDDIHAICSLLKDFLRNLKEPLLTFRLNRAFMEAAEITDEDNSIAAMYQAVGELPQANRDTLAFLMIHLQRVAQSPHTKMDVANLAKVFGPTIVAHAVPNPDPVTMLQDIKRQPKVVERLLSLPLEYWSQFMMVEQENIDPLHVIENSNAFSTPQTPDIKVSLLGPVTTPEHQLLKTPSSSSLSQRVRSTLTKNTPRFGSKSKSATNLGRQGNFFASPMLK

[20] = Luminescence Cell-Based Dose Confirmation HTS to Identify Activators of 5'UTR Stem-Loop Driven Alpha-Synuclein mRNA Translation in H4 Neuroglioblastoma Cells. [Related pubchem assays: 1829 (Project Summary), 1814 (Primary HTS)]; format: functional
Fatty acid synthase [21] = target: T7, Fatty acid synthase (Homo sapiens, UniProt P49327); experiment: inhibition of human FAS-TE enzyme activity – biochemical, kinetic fluorescence intensity, dose response (AID 624326); format: functional;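 also: rate of fluorescence rise from hydrolysis of a fluorogenic O-methyl fluorescein ester substrate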
Fatty acid synthase [22] = target: T7, Fatty acid synthase; experiment: inhibition of human FAS-TE enzyme activity – biochemical, endpoint fluorescence intensity, uHTS hits, dose response (AID 624327); format: functional;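 also: fluorescence from hydrolysis of an O-methyl fluorescein acyl ester substrate by the enzyme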
[23] = T. cruzi growth inhibition in host cells, dose response, cell-based, plate reader, dry powder, set 2 (AID 652275); format: functional

T7 sequence (P49327 whole entry): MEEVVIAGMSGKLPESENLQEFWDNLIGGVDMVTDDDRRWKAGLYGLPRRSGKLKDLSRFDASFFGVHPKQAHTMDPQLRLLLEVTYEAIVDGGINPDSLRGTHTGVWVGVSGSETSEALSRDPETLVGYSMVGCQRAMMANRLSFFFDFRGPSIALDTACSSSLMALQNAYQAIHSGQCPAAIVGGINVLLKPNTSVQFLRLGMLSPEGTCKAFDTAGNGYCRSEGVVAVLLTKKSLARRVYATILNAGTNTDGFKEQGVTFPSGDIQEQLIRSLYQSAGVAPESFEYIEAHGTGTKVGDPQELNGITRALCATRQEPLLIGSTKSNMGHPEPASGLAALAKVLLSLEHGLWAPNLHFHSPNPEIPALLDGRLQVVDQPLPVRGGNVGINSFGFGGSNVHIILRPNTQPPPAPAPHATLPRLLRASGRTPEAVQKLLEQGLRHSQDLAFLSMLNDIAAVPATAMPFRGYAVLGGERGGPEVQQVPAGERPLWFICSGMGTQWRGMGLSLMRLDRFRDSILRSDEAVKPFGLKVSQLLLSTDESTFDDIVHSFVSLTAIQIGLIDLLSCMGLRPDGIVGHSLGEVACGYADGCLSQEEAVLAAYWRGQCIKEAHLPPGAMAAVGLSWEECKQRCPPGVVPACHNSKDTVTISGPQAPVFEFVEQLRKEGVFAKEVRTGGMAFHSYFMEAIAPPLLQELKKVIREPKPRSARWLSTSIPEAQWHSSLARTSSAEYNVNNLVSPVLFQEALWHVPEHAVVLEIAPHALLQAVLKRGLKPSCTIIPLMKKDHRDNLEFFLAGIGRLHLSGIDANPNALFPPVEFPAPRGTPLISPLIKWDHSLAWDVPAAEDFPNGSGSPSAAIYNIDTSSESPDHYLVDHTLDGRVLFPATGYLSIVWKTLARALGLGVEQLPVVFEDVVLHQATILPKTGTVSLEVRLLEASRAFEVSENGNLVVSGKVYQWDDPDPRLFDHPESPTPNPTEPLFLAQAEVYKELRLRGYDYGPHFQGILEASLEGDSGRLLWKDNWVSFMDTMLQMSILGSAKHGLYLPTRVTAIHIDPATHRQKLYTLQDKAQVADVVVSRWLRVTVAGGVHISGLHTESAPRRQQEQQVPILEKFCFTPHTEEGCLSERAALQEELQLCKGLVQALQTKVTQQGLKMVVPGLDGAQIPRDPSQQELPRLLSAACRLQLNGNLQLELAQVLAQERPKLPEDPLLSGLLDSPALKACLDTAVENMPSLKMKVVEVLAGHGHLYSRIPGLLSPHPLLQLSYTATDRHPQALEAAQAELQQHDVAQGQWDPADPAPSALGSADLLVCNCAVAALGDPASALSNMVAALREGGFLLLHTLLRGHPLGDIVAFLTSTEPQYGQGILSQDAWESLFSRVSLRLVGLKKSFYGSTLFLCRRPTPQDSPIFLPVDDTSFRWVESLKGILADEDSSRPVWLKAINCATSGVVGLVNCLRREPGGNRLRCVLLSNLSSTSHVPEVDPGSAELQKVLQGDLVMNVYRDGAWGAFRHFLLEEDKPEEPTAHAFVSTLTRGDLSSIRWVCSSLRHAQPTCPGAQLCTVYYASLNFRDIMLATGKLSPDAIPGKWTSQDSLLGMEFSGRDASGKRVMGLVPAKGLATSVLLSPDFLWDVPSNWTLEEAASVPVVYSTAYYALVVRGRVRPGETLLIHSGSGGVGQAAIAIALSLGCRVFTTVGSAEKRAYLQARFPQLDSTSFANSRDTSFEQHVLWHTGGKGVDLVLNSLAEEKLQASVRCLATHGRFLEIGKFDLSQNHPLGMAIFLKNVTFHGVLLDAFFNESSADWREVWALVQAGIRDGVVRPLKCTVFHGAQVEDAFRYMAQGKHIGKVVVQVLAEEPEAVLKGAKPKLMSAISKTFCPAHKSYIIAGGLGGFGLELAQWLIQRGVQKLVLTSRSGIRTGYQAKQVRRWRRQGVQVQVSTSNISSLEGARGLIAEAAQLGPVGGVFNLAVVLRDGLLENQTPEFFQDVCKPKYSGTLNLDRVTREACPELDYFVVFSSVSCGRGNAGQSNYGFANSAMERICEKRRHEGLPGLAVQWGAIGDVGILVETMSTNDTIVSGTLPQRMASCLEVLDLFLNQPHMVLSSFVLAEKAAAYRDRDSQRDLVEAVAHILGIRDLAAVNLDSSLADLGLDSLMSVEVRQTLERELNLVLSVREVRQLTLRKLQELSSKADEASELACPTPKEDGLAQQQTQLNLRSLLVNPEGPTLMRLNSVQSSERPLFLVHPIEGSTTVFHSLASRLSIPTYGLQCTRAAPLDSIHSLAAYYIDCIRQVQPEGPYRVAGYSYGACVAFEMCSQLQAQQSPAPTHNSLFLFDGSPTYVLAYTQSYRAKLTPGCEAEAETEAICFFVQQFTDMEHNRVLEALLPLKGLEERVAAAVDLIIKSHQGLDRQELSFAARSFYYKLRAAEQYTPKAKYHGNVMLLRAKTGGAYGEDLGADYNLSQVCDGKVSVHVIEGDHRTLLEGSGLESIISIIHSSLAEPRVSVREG
T4 sequence (P63165 whole entry): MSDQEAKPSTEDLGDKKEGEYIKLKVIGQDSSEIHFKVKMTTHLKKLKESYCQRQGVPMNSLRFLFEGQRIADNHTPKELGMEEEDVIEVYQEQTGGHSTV
Chain of Disintegrin and metalloproteinase domain-containing protein 17 (P78536 whole entry, the tested form may be a part): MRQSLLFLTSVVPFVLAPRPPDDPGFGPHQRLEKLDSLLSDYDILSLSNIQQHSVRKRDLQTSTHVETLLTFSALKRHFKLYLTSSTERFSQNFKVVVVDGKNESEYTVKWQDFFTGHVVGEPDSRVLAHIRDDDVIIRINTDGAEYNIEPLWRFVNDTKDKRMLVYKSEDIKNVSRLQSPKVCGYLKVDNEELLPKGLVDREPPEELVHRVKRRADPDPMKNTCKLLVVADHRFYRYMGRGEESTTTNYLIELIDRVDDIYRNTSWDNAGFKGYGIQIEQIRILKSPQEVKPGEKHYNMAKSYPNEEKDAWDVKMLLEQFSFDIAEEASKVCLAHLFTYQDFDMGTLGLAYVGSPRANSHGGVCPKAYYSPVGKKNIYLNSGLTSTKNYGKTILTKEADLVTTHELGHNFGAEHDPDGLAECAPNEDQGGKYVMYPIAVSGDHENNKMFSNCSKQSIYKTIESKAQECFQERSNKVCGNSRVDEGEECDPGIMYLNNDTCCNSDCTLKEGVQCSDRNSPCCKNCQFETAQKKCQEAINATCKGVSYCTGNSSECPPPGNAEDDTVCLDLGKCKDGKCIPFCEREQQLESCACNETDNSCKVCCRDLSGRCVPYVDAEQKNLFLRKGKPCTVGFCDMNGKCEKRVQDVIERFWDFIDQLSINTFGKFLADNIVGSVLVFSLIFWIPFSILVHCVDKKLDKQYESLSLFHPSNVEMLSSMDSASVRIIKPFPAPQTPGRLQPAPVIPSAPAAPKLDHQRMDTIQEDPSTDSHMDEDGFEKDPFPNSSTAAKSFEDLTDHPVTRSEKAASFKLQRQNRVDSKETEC

Compound: CN(C)c1ccc(C=Cc2ccnc3ccccc23)cc1N
- AC50 [1]: 26 µM (active)

Compound: OC(c1cc(C(F)(F)F)nc2c(C(F)(F)F)cccc12)C1CCCCN1 (stereo not given) [MEFLOQUINE HYDROCHLORIDE]
- AC50 [2]: 8.37 µM (active)
- IC50 [3]: > 20 µM (inactive)
- AC50 [4]: 11.6 µM (active)
- AC50 [5]: 5.19 µM (active)
- AC50 [6]: 7.13 µM (active)
- AC50 [8]: 9.96 µM (active)

Compound: CN(C)CCNC(=O)c1cccc(-c2cnc3c(NC=O)cc(-c4cccs4)cn23)c1
- AC50 [9]: 15.6 µM (active)
- AC50 [10]: 8.36 µM (active)
- IC50 [11]: > 66.6 µM (inactive)
- IC50 [12]: 1.82 µM (active)

Compound: Cc1ccccc1-n1c(SCC(=O)N/N=C/C=C/c2ccccc2[N+](=O)[O-])nc2ccccc2c1=O
- AC50 [13]: > 195 µM (inactive)
- IC50 [14]: > 69.5 µM (inactive)
- IC50 [15]: 4.51 µM (active)

Compound: Cc1cc(N2CCN(C)CC2)nc2ccc(NC(=S)NCCCN3CCc4ccccc4C3)cc12
- AC50 [9]: 28.1 µM (active)
- AC50 [10]: 3.85 µM (active)

Compound: Cc1cc(/C=C2\C(=O)NC(=O)N(Cc3ccccc3Cl)C2=O)c(C)n1-c1ccc(C(=O)O)cc1
- AC50 [16]: > 20 µM (inactive)

Compound: CCn1c(SC(C)C)nnc1-c1cc(-c2ccccc2)sc1N
- EC50 (H4): > 120 µM (not active)
- CC50 [17]: 100 µM (active)
- EC50 [18]: > 120 µM (not active)
- IC50 [19]: 31.1 µM (active)
- EC50 [20]: > 120 µM (not active)

Compound: COc1ccc(N2CCN(CC(O)COC(c3ccc(F)cc3)c3ccc(F)cc3)CC2)cc1 (stereo not given)
- CC50 [17]: 100 µM (active)
- IC50 [19]: 92.8 µM (active)

Compound: COc1cccc(-c2cnc3c(NC=O)cc(-c4ccc(S(C)(=O)=O)cc4)cn23)c1
- IC50 (Fatty acid synthase [21]): 9.95 µM (active)
- IC50 (Fatty acid synthase [22]): 11.2 µM (active)

Compound: CN(Cc1ccccc1)C(=O)COC(=O)c1cc([N+](=O)[O-])ccc1N1CCOCC1
- IC50 (Fatty acid synthase [21]): 0.617 µM (active)
- IC50 (Fatty acid synthase [22]): 0.539 µM (active)

Compound: COCCCNC(=O)C[C@H]1C[C@H](C(=O)N2CCOCC2)[C@@]2(CCC3CCCC3)c3[nH]c4cc(-c5ccco5)ccc4c3CCN2C1=O
- IC50 (Fatty acid synthase [21]): 9.08 µM (active)
- IC50 (Fatty acid synthase [22]): 6.51 µM (active)

Compound: O=C(C1CCC1)N1CCCCN2[C@@H](CO)[C@H](c3ccc(-c4cccc(F)c4)cc3)[C@@H]2C1
- AC50 [23]: 0.227 µM (active)

Compound: COc1cc(C(c2c(C)n[nH]c2O)c2c(C)n[nH]c2O)ccc1OCc1ccc([N+](=O)[O-])cc1
- IC50 [15]: > 23.2 µM (inactive)

Compound: O=C(CSc1nc2ccccc2o1)NN=C/C=C/c1ccccc1
- IC50 [14]: > 69.5 µM (inactive)
- IC50 [15]: > 69.5 µM (inactive)
